Converted amounts (≈) assume the structure as drawn. Where two headings read alike, the source gives them in different places. Values belong to the compound of their own block, whether it stands above or below them.
How the values were obtained:
Prostate (PC-3) = test: Anticancer activity in vitro (Table 3), PC-3; type: cell-based, human; details: 48 h; for GI50 / IC50 / LC50: Homo sapiens
gastric (BGC-823) = test: Anticancer activity in vitro (Table 3), BGC-823; type: cell-based, human; details: for GI50 / IC50 / CC50: Homo sapiens, BGC-823, 48 h; for BGC-823 TGI: 48 h; for CC50: read-out: BGC-823 LC50
MCF-7 = test: cells; details: Homo sapiens; for CC50: MCF7, read-out: MCF-7 LC50; for GI50: MCF7, read-out: MCT-7 GI50
Cdk1/Cyclin B = Cdk1/Cyclin B (Homo sapiens, UniProt P06493); test: Cdk1/Cyclin B inhibitory activity, Z'-LYTE Kinase Assay; type: biochemical; details: for IC50: ATP 10 μM, 8 concentrations of 0.01-25 μM
Cdk1/Cyclin B, sequence (P06493 whole entry): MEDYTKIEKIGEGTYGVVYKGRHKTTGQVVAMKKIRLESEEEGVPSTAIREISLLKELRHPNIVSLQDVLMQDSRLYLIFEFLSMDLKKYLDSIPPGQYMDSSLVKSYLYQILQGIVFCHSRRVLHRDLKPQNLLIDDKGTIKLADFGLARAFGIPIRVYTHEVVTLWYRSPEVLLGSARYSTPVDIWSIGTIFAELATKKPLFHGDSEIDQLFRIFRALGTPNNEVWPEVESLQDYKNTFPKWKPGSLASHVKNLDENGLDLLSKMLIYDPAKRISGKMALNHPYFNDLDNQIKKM
Cdk1/Cyclin B, sequence (P14635 whole entry partner): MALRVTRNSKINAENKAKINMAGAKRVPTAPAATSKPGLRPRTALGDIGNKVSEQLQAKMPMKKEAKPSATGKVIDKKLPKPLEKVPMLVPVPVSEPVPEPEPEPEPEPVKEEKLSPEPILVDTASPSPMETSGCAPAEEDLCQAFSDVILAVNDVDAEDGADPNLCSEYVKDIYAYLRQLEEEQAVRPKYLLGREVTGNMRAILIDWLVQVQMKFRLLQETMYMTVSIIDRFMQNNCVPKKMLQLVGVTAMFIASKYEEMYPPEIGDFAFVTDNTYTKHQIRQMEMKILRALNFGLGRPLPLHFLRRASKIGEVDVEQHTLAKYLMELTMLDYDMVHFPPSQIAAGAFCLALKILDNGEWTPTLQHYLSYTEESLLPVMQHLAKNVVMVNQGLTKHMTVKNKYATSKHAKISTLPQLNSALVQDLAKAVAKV

[1] = Druggability screening: blood drug concentration and half-life; details: equilibrium phase
Breast (MCF-7) = test: Anticancer activity in vitro (Table 3), MCF-7; type: cell-based, human; details: for MCF-7 TGI: 48 h; for GI50 / IC50 / CC50: Homo sapiens, MCF7, 48 h; for CC50: read-out: MCF-7 LC50
[2] = Druggability screening: protein binding rate; type: in vitro ADME
[3] = Druggability screening: solubility in PBS (pH7.4); type: physicochemical; details: pH 7.4, aqueous buffer
[4] = in vivo
[5] = system: 58 kinds human tumor cell; test: NCI growth inhibition of 58 kinds human tumor cell; type: cell-based; details: 48 h, by NCI, read-out: growth inhibition rates in vitro 58 kinds human tumor cell
CD4+T lymphocytes = test: Differentiate growth inhibition of CD4+T lymphocytes; type: cell-based; details: 48 h, induced by growth factor IL-3 and IL-5, read-out: differentiate growth inhibition rates of CD4+T lymphocytes
Excerpt: These show a good prospect against AIDS, and are going to be prepared anti-AIDS drugs.

[6] = system: human cervical carcinoma HeLa cell line; test: MTT cancer cell growth inhibition, HeLa; type: cell-based
[7] = system: human gastric cancer BGC823 cell lines; test: Annexin V-PI double staining flow cytometry apoptosis, BGC823; type: cell-based; details: BGC823, concentration equals to IC50, 48 hours
[8] = Distribution and plasma binding in rabbits (LC-DAD-MS); type: in vivo
Excerpt: The major metabolic process relates to the structures is illustrated in the following scheme.

[9] = system: human cervical carcinoma HeLa cell line; test: Annexin V-PI double staining flow cytometry apoptosis, HeLa; type: cell-based; details: concentration equals to IC50, 48 hours
[10] = system: human gastric cancer BGC823 cell lines; test: MTT cancer cell growth inhibition, BGC823; type: cell-based
[11] = system: human breast cancer MCF-7; test: Annexin V-PI double staining flow cytometry apoptosis, MCF-7; type: cell-based; details: MCF-7, concentration equals to IC50, 48 hours
[12] = system: human breast cancer MCF-7; test: MTT cancer cell growth inhibition, MCF-7; type: cell-based

SMILES: COc1c(O)c(CN2CCN(C)CC2)c2oc(-c3ccccc3)cc(=O)c2c1O [6-OCH3— Methylpiperazine Baicalein]
PC-3 TGI (Prostate (PC-3)): 76.1 µM
GI50 (Prostate (PC-3)): 11.2 µM
IC50 (Prostate (PC-3)): 87.6 µM
GI50 (gastric (BGC-823)): 26.2 µM
IC50 (gastric (BGC-823)): 115 µM
CC50 (MCF-7): > 100 µM
GI50 (MCF-7): 26.1 µM
IC50 (Cdk1/Cyclin B): 0.88 µM

SMILES: O=c1cc(-c2ccccc2)oc2cc(O)c(O)c(O)c12 [Baicalein, reference compound]
half-life (in vivo): 5.26 h
IC50 (Cdk1/Cyclin B): 2.08 µM
Blood drug concentration [1]: 0.026 µM

SMILES: O=C(O)[C@H]1O[C@@H](Oc2cc3oc(-c4ccccc4)cc(=O)c3c(O)c2O)[C@H](O)[C@@H](O)[C@@H]1O [Baicalin, reference compound]
inhibition against Cdk1/Cyclin B (in words) (Cdk1/Cyclin B): slight inhibition
IC50 (Cdk1/Cyclin B): 18.1 µM

IC50 (Cdk1/Cyclin B): 0.31 µM
SMILES: COc1c(O)c(CN(CCO)CCO)c(O)c2c(=O)cc(-c3ccccc3)oc12 [Diethanolamin Wogonin, 6-((bis(2-hydroxyethyl)amino)methyl)-5,7-dihydroxy-8-methoxy-2-phenyl-4H-chromen-4-one]

SMILES: CN(C)Cc1c(O)c(O)c(O)c2c(=O)cc(-c3ccccc3)oc12 [Dimethylamine Baicalein]
GI50 (MCF-7): 12.3 µM

IC50 (Cdk1/Cyclin B): 7.63 µM
SMILES: COc1c(O)c(CN(C)C)c(O)c2c(=O)cc(-c3ccccc3)oc12 [Dimethylamine Wogonin, 6-((dimethylamino)methyl)-5,7-dihydroxy-8-methoxy-2-phenyl-4H-chromen-4-one]

IC50 (Cdk1/Cyclin B): 0.79 µM
SMILES: CN1CCC(c2c(O)cc(O)c3c(=O)cc(-c4ccccc4Cl)oc23)C1CO (centres unmarked) [Example P276-00, reference compound]

GI50 (MCF-7): 0.048 µM
SMILES: CN1CC[C@H](c2c(O)cc(O)c3c(=O)cc(-c4ccccc4Cl)oc23)[C@H](O)C1 [Flavopiridol, reference compound]

SMILES: O=c1cc(-c2ccccc2)oc2c(CN3CCN(CCO)CC3)c(O)c(O)c(O)c12 [Hydroxyethylpiperazine Baicalein, 5,6,7-trihydroxy-8-((4-(2-hydroxyethyl)piperazin-1-yl)methyl)-2-phenyl-4H-chromen-4-one]
MCF-7 TGI (Breast (MCF-7)): 15.4 µM
GI50 (Breast (MCF-7)): 6 µM
IC50 (Breast (MCF-7)): 20.4 µM
CC50 (Breast (MCF-7)): 32.6 µM
fraction unbound [2]: 0.04
PC-3 TGI (Prostate (PC-3)): 15.4 µM
GI50 (Prostate (PC-3)): 6.2 µM
IC50 (Prostate (PC-3)): 11.6 µM
LC50 (Prostate (PC-3)): 36.6 µM
BGC-823 TGI (gastric (BGC-823)): 15.4 µM
GI50 (gastric (BGC-823)): 6.1 µM
IC50 (gastric (BGC-823)): 19.3 µM
CC50 (gastric (BGC-823)): 51 µM
CC50 (MCF-7): 42.1 µM
GI50 (MCF-7): 13.1 µM
half-life (in vivo): 3.75 h
IC50 (Cdk1/Cyclin B): 0.28 µM
solubility [3]: 607 µM (≈ 250 µg/mL)
Blood drug concentration [4]: 31.6 µM
inhibition at 10 µM [5]: 46.2%

GI50 (MCF-7): 11.1 µM
half-life (in vivo): 4 h
IC50 (Cdk1/Cyclin B): 0.32 µM
solubility [3]: 9390 µM (≈ 4000 µg/mL)
Blood drug concentration [4]: 94.0 µM
SMILES: COc1c(O)c(CN2CCN(CCO)CC2)c(O)c2c(=O)cc(-c3ccccc3)oc12 [Hydroxyethylpiperazine Wogonin, 6-((4-(2-hydroxyethyl)piperazin-1-yl)methyl)-5,7-dihydroxy-8-methoxy-2-phenyl-4H-chromen-4-one]
inhibition at 10 µM (CD4+T lymphocytes): 55%
CC50 (MCF-7): 43.1 µM

IC50 (Cdk1/Cyclin B): 0.29 µM
SMILES: O=c1cc(-c2ccccc2)oc2c(CN3CCC(O)C3)c(O)c(O)c(O)c12 (centres unmarked) [Hydroxylpyrrolidine Baicalein, 5,6,7-trihydroxy-8-((3-hydroxypyrrolidin-1-yl)methyl)-2-phenyl-4H-chromen-4-one]

SMILES: O=c1cc(-c2ccccc2)oc2c(CN3CCC(O)CC3)c(O)c(O)c(O)c12 [Hydroxypiperidin Baicalein, 5,6,7-trihydroxy-8-((4-hydroxypiperidin-1-yl)methyl)-2-phenyl-4H-chromen-4-one]
MCF-7 TGI (Breast (MCF-7)): 16.4 µM
GI50 (Breast (MCF-7)): 6 µM
IC50 (Breast (MCF-7)): 20.1 µM
CC50 (Breast (MCF-7)): 31 µM
fraction unbound [2]: 0.09
PC-3 TGI (Prostate (PC-3)): 16.4 µM
GI50 (Prostate (PC-3)): 6 µM
IC50 (Prostate (PC-3)): 18.1 µM
LC50 (Prostate (PC-3)): 41 µM
BGC-823 TGI (gastric (BGC-823)): 16.4 µM
GI50 (gastric (BGC-823)): 5.7 µM
IC50 (gastric (BGC-823)): 18.6 µM
CC50 (gastric (BGC-823)): 53.1 µM
inhibition at 10 µM (CD4+T lymphocytes): 46.2%
CC50 (MCF-7): 40.1 µM
GI50 (MCF-7): 10.2 µM
half-life (in vivo): 4.23 h
IC50 (Cdk1/Cyclin B): 0.3 µM
solubility [3]: 377 µM (≈ 145 µg/mL)
Blood drug concentration [4]: 28.7 µM
inhibition at 10 µM [5]: 40.6%

IC50 (Cdk1/Cyclin B): 6.91 µM
SMILES: COc1c(O)c(CN2CCC(O)CC2)c(O)c2c(=O)cc(-c3ccccc3)oc12 [Hydroxypiperidine Wogonin, 5,7-dihydroxy-6-((4-hydroxypiperidin-1-yl)methyl)-8-methoxy-2-phenyl-4H-chromen-4-one]

SMILES: CN1CCN(Cc2c(O)c(O)c(O)c3c(=O)cc(-c4ccccc4)oc23)CC1 [Methylpiperazine Baicalein, 5,6,7-trihydroxy-8-((4-methylpiperazin-1-yl)methyl)-2-phenyl-4H-chromen-4-one]
MCF-7 TGI (Breast (MCF-7)): 16.4 µM
GI50 (Breast (MCF-7)): 6.4 µM
IC50 (Breast (MCF-7)): 19.3 µM
CC50 (Breast (MCF-7)): 31.3 µM
fraction unbound [2]: 0.02
PC-3 TGI (Prostate (PC-3)): 19.8 µM
GI50 (Prostate (PC-3)): 8.2 µM
IC50 (Prostate (PC-3)): 21.1 µM
LC50 (Prostate (PC-3)): 38.8 µM
BGC-823 TGI (gastric (BGC-823)): 19.8 µM
GI50 (gastric (BGC-823)): 6.4 µM
IC50 (gastric (BGC-823)): 23.1 µM
CC50 (gastric (BGC-823)): 62.7 µM
CC50 (MCF-7): 37.2 µM
GI50 (MCF-7): 10.9 µM
IC50 ([6]; 24 h): 12.8 ± 0.2 µM
IC50 ([6]; 48 h): 8.2 ± 0.15 µM
IC50 ([6]; 72 h): 6.7 ± 0.24 µM
IC50 (Cdk1/Cyclin B): 0.29 µM
solubility [3]: 6.02 µM (≈ 2.3 µg/mL)
early apoptosis [7]: 69.2%
late apoptosis and cellular necrosis [7]: 22.2%
tissue distribution ([8]; LC-DAD-MS): rapidly distributed to various tissues
fraction unbound ([8]; rabbit, plasma, dose-independent manner, read-out: bound to plasma (converted)): 0.02
early apoptosis [9]: 67.3%
late apoptosis and cellular necrosis [9]: 27.1%
IC50 ([10]; BGC-823, 24 h): 9.6 ± 0.21 µM
IC50 ([10]; BGC-823, 48 h): 7.2 ± 0.23 µM
IC50 ([10]; BGC-823, 72 h): 6.5 ± 0.19 µM
inhibition at 10 µM [5]: 50%
early apoptosis [11]: 72.3%
late apoptosis and cellular necrosis [11]: 23.1%
IC50 ([12]; MCF7, 24 h): 13.7 ± 0.21 µM
IC50 ([12]; MCF7, 48 h): 10.6 ± 0.17 µM
IC50 ([12]; MCF7, 72 h): 7.4 ± 0.25 µM

IC50 (Cdk1/Cyclin B): > 25 µM
SMILES: COc1c(O)c(CN2CCN(C)CC2)c(O)c2c(=O)cc(-c3ccccc3)oc12 [Methylpiperazine Wogonin, 6-((4-methylpiperazin-1-yl)methyl)-5,7-dihydroxy-8-methoxy-2-phenyl-4H-chromen-4-one]

SMILES: O=c1cc(-c2ccccc2)oc2c(CN3CCOCC3)c(O)c(O)c(O)c12 [Morpholine Baicalein]
CC50 (MCF-7): 48.9 µM
GI50 (MCF-7): 10.1 µM
IC50 (Cdk1/Cyclin B): 0.3 µM

IC50 (Cdk1/Cyclin B): > 25 µM
SMILES: COc1c(O)c(CN2CCOCC2)c(O)c2c(=O)cc(-c3ccccc3)oc12 [Morpholine Wogonin, 5,7-dihydroxy-8-methoxy-6-(morpholinomethyl)-2-phenyl-4H-chromen-4-one]

GI50 (MCF-7): 13.8 µM
IC50 (Cdk1/Cyclin B): 0.28 µM
solubility [3]: 166 µM (≈ 61.2 µg/mL)
SMILES: O=c1cc(-c2ccccc2)oc2c(CN3CCNCC3)c(O)c(O)c(O)c12 [Piperazine Baicalein]
CC50 (MCF-7): 53.1 µM

IC50 (Cdk1/Cyclin B): 6.62 µM
SMILES: COc1c(O)c(CN2CCNCC2)c(O)c2c(=O)cc(-c3ccccc3)oc12 [Piperazine Wogonin, 5,7-dihydroxy-8-methoxy-2-phenyl-6-(piperazin-1-ylmethyl)-4H-chromen-4-one]

GI50 (MCF-7): 10.5 µM
SMILES: O=c1cc(-c2ccccc2)oc2c(CN3CCCCC3)c(O)c(O)c(O)c12 [Piperidine Baicalein]
CC50 (MCF-7): 37.2 µM

IC50 (Cdk1/Cyclin B): 10.5 µM
SMILES: COc1c(O)c(CN2CCCCC2)c(O)c2c(=O)cc(-c3ccccc3)oc12 [Piperidine Wogonin, 5,7-dihydroxy-8-methoxy-2-phenyl-6-(piperidin-1-ylmethyl)-4H-chromen-4-one]

SMILES: O=c1cc(-c2ccccc2)oc2c(CN3CCCC3)c(O)c(O)c(O)c12 [Pyrrolidine Baicalein]
GI50 (MCF-7): 10.3 µM

IC50 (Cdk1/Cyclin B): 17.2 µM
SMILES: COc1c(O)c(CN2CCCC2)c(O)c2c(=O)cc(-c3ccccc3)oc12 [Pyrrolidine Wogonin, 5,7-dihydroxy-8-methoxy-2-phenyl-6-(pyrrolidin-1-ylmethyl)-4H-chromen-4-one]

GI50 (MCF-7): 14.2 µM
SMILES: O=c1cc(-c2ccccc2)oc2c(CN3CCSCC3)c(O)c(O)c(O)c12 [Sulfurmorpholine Baicalein]
CC50 (MCF-7): 84.3 µM

IC50 (Cdk1/Cyclin B): 3.17 µM
SMILES: COc1c(O)c(CN2CCSCC2)c(O)c2c(=O)cc(-c3ccccc3)oc12 [Sulfurmorpholine Wogonin, 5,7-dihydroxy-8-methoxy-2-phenyl-6-(thiomorpholinomethyl)-4H-chromen-4-one]

IC50 (Cdk1/Cyclin B): 3.5 µM
SMILES: COc1c(O)cc(O)c2c(=O)cc(-c3ccccc3)oc12 [Wogonin, reference compound]

From US8377895B2, “Cyclin-dependent protein kinases inhibitors of Scutellaria flavonoid organic amine derivatives, synthesis and use thereof” (priority 2008, dated 2013)
